Values belong to the substance of their own block, whether it stands above or below them. Where no end group is shown, it is not given here.
Test system: serum IgG autoantibodies
Assay: ELISA for autoantibody detection: serum antibody binding to native and oxPTM insulin peptides
Parameters: species or system human
Conditions: for % binders, Healthy controls / Mean ± SEM (absorbance, OD), Healthy controls / % binders, Type 1 diabetes: Study cohort 1; for % binders, Healthy controls / Mean ± SEM (absorbance, OD), Healthy controls / % binders, Type 1 diabetes / Mean ± SEM (absorbance, OD), Type 1 diabetes: in house modifications; for % binders, Type 1 diabetes: cut-off = mean of healthy controls to Nt-INSP plus 3 SEM; for Mean ± SEM (absorbance, OD), Type 1 diabetes: Study cohort 1 sera; for Antibody reactivity of serum samples (in words): ELISA; for type 1 diabetes binders (IgG autoantibody reactivity): Study cohort 2, N = 18
Experimental: ELISA for autoantibody detection. The ELISA analysis of Nt-INS and oxPTM-INS autoantibodies was performed as previously described [18](detailed in ESM methods, ELISA assay for antibody detection).
Statistical analyses. Statistical analyses were performed using Prism Software 9.0 (GraphPad, San Diego, CA, USA). Cut-off points of positivity (binders) in the antibody ELISA for each peptide were defined by the mean of optical absorbance (O.D) of healthy controls to the corresponding Nt-INSP plus three times the standard error of the mean (SEM). Specificity and sensitivity were evaluated by receiver operating characteristic (ROC) curve analysis. Area under the curve (AUC) is reported as absolute value and was tested for equality according to DeLong et al. Differences in antibody levels and T-cell stimulation indices (SI) between groups were tested by the One way ANOVA or Student's t-tests as appropriate. Correlation analyses were tested by Pearson or Spearman's test, as appropriate. Categorical analyses were performed by Chi-square or McNemar's tests, as appropriate. For each set of experiments, p values were adjusted for multiple comparison using the Holm-Sidak's test. Hierarchical cluster and Principal Component Analysis (PCA) was done using Clustvis software (https://biit.cs.ut.ee/clustvis/) and Prism Software 9.0, respectively.
Antibody reactivity of type 1 diabetes serum against the candidate oxPTM-INSP. Identified peptide candidates were synthesised and exposed to either HOCl or ^●OH to generate oxPTM-INSPs that were first assessed by TOF-MS/ES+TIC to confirm modification (FIG. 17). Antibody response against native INSPs (Nt-INSPs) and oxPTM-INSPs was evaluated by ELISA using sera from Study cohort 1.
ESM Methods ELISA assay for antibody detection. The ELISA analysis of native (Nt-INS) and modified insulin (oxPTM-INS) was performed as previously described. Briefly, the ELISA plate was coated overnight at 4° C. with 100 μl per well of modified or native insulin in 0.05 M carbonate/bicarbonate buffer pH 9.6 at 10 μg/ml. The next day, the plates were washed 3 times with 0.1% Tween PBS, followed by blocking for 2 hours at room temperature with 200 μl per well of 5% BSA in 0.1% Tween PBS. After washing, 100 μl of 1:200-diluted serum samples in 5% BSA-0.1% Tween PBS were added for additional 2 hours incubation. ELISA plates were then washed 3 times with 0.1% Tween PBS followed by probing with anti-human IgG horse radish peroxidase conjugated (HRP, Sigma) at 1:1,000 dilution in 5% BSA-0.1% Tween PBS for another 1.5 hours incubation. The ELISA plates were washed, and 100 μg/ml TMB substrate in 0.1M sodium acetate pH 6.0 plus 2 μl/10 ml of H2O2, were added. Subsequently, the reaction was stopped with 20% v/v sulphuric acid. The optical density (O.D.) was measured at 450 nm using a GENios plate reader and Magellan software (TECAN, Dorset, UK).

Substance: INSP-4 oxPTM-•OH: INSP-4 peptide oxidised in house by hydroxyl radical (LVEALYLVCGERGFFYTPKT; also: oxidised by hydroxyl radical, modified residues not defined)
% binders, Healthy controls: 27% | Mean ± SEM (absorbance, OD), Healthy controls: 0.344 ± 0.022 | % binders, Type 1 diabetes: 58% | Mean ± SEM (absorbance, OD), Type 1 diabetes: 0.539 ± 0.068

Substance: INSP-6 oxPTM-HOCI: INSP-6 peptide oxidised in house by HOCl (ERGFFYTPKT; not fully specified (N-terminus); also: oxidised by HOCl, modified residues not defined)
% binders, Healthy controls: 25% | Mean ± SEM (absorbance, OD), Healthy controls: 0.312 ± 0.019 | % binders, Type 1 diabetes: 43% | Mean ± SEM (absorbance, OD), Type 1 diabetes: 0.391 ± 0.013

Substance: INSP-6 oxPTM-•OH: INSP-6 peptide oxidised in house by hydroxyl radical (ERGFFYTPKT; not fully specified (N-terminus); also: oxidised by hydroxyl radical, modified residues not defined)
% binders, Healthy controls: 12% | Mean ± SEM (absorbance, OD), Healthy controls: 0.280 ± 0.020 | % binders, Type 1 diabetes: 83% | Mean ± SEM (absorbance, OD), Type 1 diabetes: 0.461 ± 0.013 | Mean ± SEM (absorbance, OD), Type 1 diabetes (listed as ●OH-modified oxPTM-INSP-6): 0.461±0.013

Substance: LVEALYLVCG
Antibody reactivity of serum samples (in words): No reactivity

Substance: Nt-INS: native human recombinant insulin
type 1 diabetes binders (IgG autoantibody reactivity): 33.3%

Substance: ^●OH-INS: insulin modified by hydroxyl radical
type 1 diabetes binders (IgG autoantibody reactivity): 50%

The remaining lines, values ahead:

Antibody reactivity of serum samples (in words): No significant reactivity
Substance: LVEALYLVCGER [INSP-2, insulin B:11-22 peptide]

Antibody reactivity of serum samples (in words): No significant reactivity
Substance: YLVCGERGFF [INSP-1, insulin B:16-25 peptide]

Reference: patent US20260072027A1, “Peptides And Method” (Queen Mary University of London, priority 2022, published 2026)
